Two compounds from US20240327364A1, “THERAPEUTIC TARGETING OF GPR68 TO INDUCE FERROPTOSIS” (University Of Maryland, Baltimore, priority 2023, published 2024) can be followed below.

The term IC50 denotes the concentration that gives 50% inhibition.

The target of one assay is Lpa1 (Homo sapiens, UniProt Q92633). Kind of assay: Lpa1 activity of OGM analogs (Table 5). In kind it is cell-based. The protocol: GPCR profiling assays were performed by Millipore (St. Louis, MO) using in cells expressing Gα15, a promiscuous G protein that enhances GPCR coupling to downstream Ca2+ signaling pathways. KinomeScan was conducted by DiscoveRx (Fremont, CA). Since GPCRs represent >30% of targets for FDA-approved small molecules and are known to modulate cell migration, activity against 158 GPCRs was assessed based on their chemical structures. GPCRs (158) were tested for agonist and antagonist activity at 10 μM. […] Chemical segregation analysis of zebrafish phenotype was conducted to further identify the inhibitory activity responsible for the zebrafish phenotype. […] The identities of the R groups in Formula A are shown below in Table 5.

A further assay has as its target T1, BIKE (Homo sapiens, UniProt Q9NSY1).
T1 construct: purchased DiscoveRx (Fremont, CA)
The experiment in a line: KinomeScan. In kind it is binding. As to conditions: read-out: % Control.

The target in the next assay is T2, CAMK1D (Homo sapiens, UniProt Q8IU85).
T2 construct: purchased DiscoveRx (KinomeScan service)
Kind of assay: KinomeScan. As to conditions: read-out: % Control. In kind it is binding.

The target of the next assay is T3, DCAMKL2 (Homo sapiens, UniProt Q8N568).
T3 construct: purchased DiscoveRx (Fremont, CA), KinomeScan service
Kind of assay: KinomeScan. To be noted: read-out: % Control. In kind it is binding.

In another assay the target is T4, FLT4 (Homo sapiens, UniProt P35916).
T4 construct: purchased DiscoveRx (Fremont, CA)
Kind of assay: KinomeScan. The class given is binding. To be noted: read-out: % Control.

Another assay has as its target T5, KIT(D816V) (Homo sapiens, UniProt P10721, D816V).
T5 construct: purchased DiscoveRx
The experiment in a line: KinomeScan. The class given is binding. As to conditions: read-out: % Control.

A further assay deals with T6, MARK4 (Homo sapiens, UniProt Q96L34).
T6 construct: purchased DiscoveRx (Fremont, CA)
Kind of assay: KinomeScan. In kind it is binding. To be noted: read-out: % Control.

In the next assay the target is T7, MEK6 (Homo sapiens, UniProt P52564).
T7 construct: purchased DiscoveRx (Fremont, CA)
Kind of assay: KinomeScan. The class given is binding. As to conditions: read-out: % Control.

The target of the next assay is T8, MKNK2 (Homo sapiens, UniProt Q9HBH9).
T8 construct: purchased DiscoveRx
Kind of assay: KinomeScan. In kind it is binding. To be noted: read-out: % Control.

In a further assay the target is T9, MLCK (Homo sapiens, UniProt Q32MK0).
T9 construct: purchased DiscoveRx
Kind of assay: KinomeScan. The class given is binding. To be noted: read-out: % Control.

Another assay has as its target T10, PIK3CB (Homo sapiens, UniProt P42338).
T10 construct: purchased DiscoveRx (Fremont, CA)
Kind of assay: KinomeScan. As to conditions: read-out: % Control. The class given is binding.

Another assay has as its target T11, SRC (Homo sapiens, UniProt P12931).
T11 construct: purchased DiscoveRx (Fremont, CA)
The experiment in a line: KinomeScan. In kind it is binding. As to conditions: read-out: % Control.

The next assay concerns the target T12, STK33 (Homo sapiens, UniProt Q9BYT3).
T12 construct: purchased DiscoveRx (Fremont, CA)
Kind of assay: KinomeScan. To be noted: read-out: % Control. The class given is binding.

The next assay has as its target T13, TSSK1B (Homo sapiens, UniProt Q9BXA7).
T13 construct: purchased DiscoveRx (Fremont, CA)
Kind of assay: KinomeScan. In kind it is binding. To be noted: read-out: % Control.

The target of another assay is T14, TXK (Homo sapiens, UniProt P42681).
T14 construct: purchased DiscoveRx
Kind of assay: KinomeScan. In kind it is binding. To be noted: read-out: % Control.

In a further assay the target is T15, BB3 (Homo sapiens, UniProt P32247).
T15 construct: host or cells: Chem-1 cells with promiscuous Gα15
Kind of assay: GPCR Profiler. In kind it is cell-based.

The next assay addresses T16, GABAB1b (Homo sapiens, UniProt Q9UBS5).
T16 construct: host or cells: Chem-1 cells expressing Gα15
The experiment in a line: GPCR Profiler. The class given is cell-based.

The target of a further assay is T17, H3 (Homo sapiens, UniProt Q9Y5N1).
T17 construct: host or cells: Chem-1 cells with promiscuous Gα15
The experiment in a line: GPCR Profiler. In kind it is cell-based.

In the next assay the target is T18, NOP (Homo sapiens, UniProt P41146).
T18 construct: host or cells: Chem-1 cells expressing Gα15
Kind of assay: GPCR Profiler. In kind it is cell-based.

For another assay, the target named is T19, PTH2 (Homo sapiens, UniProt P49190).
T19 construct: host or cells: Chem-1 cells with Gα15
Kind of assay: GPCR Profiler. In kind it is cell-based.

For a further assay, the system named is U138. Kind of assay: Liperfluo lipid peroxidation. In kind it is cell-based, human. The protocol: (§1) Cells were plated on a 100 mm cell culture dish (CELLTREAT Scientific Products) in 10 mls of DMEM with high glucose, GlutaMAX, HEPES, Penicillin-Streptomycin (ThermoFisher™) and 10% FBS. Cells were incubated overnight at 37° C. in 5% CO2. Media were then replaced with […] fresh media with DMSO, OGM2, or Erastin (APExBIO Technology™) and the cells incubated for 3 days. On the third day, 3 mL fresh media with 2.5 μM Liperfluo™ (Dojindo Molecular Technologies™, Inc.) resuspended in DMSO was added and cells were incubated at 37° C. in 5% CO2 for 1 hour. Cells were subsequently trypsinized for 5 minutes, pelleted by centrifugation, and resuspended in cell sorting media (1% BSA and 1 mM EDTA in PBS pH 7.4). Ten thousand events were recorded on a BD LSR II and the data processed using the FlowJo™ software.
(§2) Where appropriate, ANOVA, or student's T-test were conducted in PRISM. Chi squared T(X) was used for Liperfluo analysis. A value T(X)>4 implies that the two distributions are different with a p<0.01 (99% confidence). For drug interaction and therapeutic interaction, the coefficient of drug interaction (CDI) was calculated as follows: CDI=AB/(A×B). According to the impact of each group, AB is the value of combined treatment and A or B is the value of the single agent group to control group.

In a further assay the test system is U87. The experiment in a line: Liperfluo lipid peroxidation. As to conditions: OGM2 and 2Gy ionizing radiation. In kind it is cell-based, human. Here is the method:
as §1, §2

In the next assay the test system is Panc02. The experiment in a line: Liperfluo lipid peroxidation. In kind it is cell-based, mouse. To be noted: OGM2 and ionizing radiation. Here is the method: as §2
Radiation, like OGM2, induces lipid peroxidation in addition to DNA damage. OGM was tested for its ability to sensitize lung and pancreatic cancers to radiation induced lipid peroxidation and ferroptosis. Cells were incubated at 37° C. in 5% CO2 in […] DMEM with DMSO, OGM2, or Erastin for 3 days. Then 2.5 μM Liperfluo in 3 ml fresh media was added and cells were incubated at 37° C. in 5% CO2 for 1 hour. Cells were then trypsinized, pelleted, and resuspended in cell sorting media (1% BSA and 1 mM EDTA in PBS pH 7.4). A BD LSR II was used to record Ten thousand events and the data processed with FlowJo v10.8. […] All treatments were highly significant with Chi-squared >4 indicating a p<0.01.

T16 sequence (Q9UBS5 1-844 isoform Q9UBS5-2): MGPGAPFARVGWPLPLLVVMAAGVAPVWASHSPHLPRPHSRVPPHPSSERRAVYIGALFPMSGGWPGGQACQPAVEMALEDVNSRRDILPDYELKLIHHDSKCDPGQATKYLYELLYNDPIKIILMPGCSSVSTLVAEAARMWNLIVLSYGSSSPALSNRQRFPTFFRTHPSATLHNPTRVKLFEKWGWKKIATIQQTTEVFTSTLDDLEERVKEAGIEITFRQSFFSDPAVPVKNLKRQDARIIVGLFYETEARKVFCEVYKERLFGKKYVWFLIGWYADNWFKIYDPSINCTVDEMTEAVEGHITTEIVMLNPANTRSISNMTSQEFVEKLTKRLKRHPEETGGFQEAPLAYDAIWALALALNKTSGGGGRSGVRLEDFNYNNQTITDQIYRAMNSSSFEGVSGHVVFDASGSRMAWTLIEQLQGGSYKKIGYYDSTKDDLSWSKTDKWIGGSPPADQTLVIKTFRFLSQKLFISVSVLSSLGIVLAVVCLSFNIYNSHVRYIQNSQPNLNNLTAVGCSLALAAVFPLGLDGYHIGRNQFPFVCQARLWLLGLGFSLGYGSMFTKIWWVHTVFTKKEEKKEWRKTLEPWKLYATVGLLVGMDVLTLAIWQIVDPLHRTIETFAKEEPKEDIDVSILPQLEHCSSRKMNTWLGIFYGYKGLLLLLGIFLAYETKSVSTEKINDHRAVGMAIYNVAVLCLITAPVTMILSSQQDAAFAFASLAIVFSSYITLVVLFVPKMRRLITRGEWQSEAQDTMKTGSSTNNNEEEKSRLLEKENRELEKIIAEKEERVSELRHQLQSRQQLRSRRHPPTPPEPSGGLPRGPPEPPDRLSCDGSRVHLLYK
T16 sequence (O75899 42-941 partner): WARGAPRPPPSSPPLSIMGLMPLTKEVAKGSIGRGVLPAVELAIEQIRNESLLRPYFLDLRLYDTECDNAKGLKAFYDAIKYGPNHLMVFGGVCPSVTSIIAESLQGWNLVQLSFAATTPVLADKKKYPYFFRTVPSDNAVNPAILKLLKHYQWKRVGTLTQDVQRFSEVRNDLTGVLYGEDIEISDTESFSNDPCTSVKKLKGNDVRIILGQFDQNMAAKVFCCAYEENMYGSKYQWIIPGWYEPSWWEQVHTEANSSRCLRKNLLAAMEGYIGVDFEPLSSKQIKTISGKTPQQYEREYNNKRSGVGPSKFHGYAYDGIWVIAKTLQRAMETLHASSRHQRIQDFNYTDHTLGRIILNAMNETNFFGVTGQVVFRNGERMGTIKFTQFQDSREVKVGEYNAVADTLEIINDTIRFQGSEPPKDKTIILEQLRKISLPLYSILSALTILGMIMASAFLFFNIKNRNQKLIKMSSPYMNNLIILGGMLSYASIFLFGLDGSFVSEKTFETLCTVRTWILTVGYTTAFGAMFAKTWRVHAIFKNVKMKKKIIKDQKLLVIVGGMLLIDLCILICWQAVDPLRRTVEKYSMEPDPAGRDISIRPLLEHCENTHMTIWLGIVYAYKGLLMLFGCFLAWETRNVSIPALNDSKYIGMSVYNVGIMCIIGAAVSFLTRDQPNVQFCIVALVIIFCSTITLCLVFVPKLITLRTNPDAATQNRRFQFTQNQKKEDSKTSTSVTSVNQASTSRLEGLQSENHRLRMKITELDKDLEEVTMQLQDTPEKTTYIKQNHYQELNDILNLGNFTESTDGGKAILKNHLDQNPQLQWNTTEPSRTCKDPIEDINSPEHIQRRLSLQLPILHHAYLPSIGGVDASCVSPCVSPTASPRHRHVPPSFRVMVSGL
T19 sequence (P49190 25-550): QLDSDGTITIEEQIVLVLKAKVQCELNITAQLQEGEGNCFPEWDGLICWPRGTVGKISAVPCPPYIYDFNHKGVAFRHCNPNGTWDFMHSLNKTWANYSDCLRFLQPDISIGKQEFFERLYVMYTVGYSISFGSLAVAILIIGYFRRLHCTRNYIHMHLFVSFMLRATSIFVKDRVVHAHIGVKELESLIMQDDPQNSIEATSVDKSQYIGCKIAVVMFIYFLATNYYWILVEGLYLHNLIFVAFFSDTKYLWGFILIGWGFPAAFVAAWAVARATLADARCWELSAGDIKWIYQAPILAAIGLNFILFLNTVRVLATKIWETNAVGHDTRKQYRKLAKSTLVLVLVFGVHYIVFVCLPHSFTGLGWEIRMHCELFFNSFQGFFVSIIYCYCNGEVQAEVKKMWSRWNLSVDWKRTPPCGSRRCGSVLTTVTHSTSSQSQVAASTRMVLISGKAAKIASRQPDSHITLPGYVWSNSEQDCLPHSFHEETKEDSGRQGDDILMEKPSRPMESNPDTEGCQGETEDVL
T17 sequence (Q9Y5N1 whole entry): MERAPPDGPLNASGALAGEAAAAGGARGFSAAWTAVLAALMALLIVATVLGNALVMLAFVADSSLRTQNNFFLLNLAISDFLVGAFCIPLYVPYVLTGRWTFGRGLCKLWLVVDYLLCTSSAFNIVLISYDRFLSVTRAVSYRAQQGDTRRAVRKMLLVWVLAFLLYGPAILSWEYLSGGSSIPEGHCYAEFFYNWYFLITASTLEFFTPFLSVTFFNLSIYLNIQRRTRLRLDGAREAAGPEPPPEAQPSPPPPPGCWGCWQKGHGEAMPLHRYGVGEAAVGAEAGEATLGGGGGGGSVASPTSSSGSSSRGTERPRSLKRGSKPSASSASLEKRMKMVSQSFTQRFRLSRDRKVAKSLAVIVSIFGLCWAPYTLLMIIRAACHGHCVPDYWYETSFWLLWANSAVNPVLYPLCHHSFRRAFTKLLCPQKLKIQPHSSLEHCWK
T18 sequence (P41146 whole entry): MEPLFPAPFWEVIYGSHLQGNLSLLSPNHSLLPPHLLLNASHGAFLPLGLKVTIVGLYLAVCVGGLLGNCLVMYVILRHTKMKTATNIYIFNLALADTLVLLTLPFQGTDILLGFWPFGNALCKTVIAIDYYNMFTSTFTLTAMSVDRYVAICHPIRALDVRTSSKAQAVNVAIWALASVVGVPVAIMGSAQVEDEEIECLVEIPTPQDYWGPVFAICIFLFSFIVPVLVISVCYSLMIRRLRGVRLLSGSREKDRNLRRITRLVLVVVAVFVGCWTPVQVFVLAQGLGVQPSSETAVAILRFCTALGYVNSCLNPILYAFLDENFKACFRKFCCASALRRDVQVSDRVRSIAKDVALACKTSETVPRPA
T15 sequence (P32247 whole entry): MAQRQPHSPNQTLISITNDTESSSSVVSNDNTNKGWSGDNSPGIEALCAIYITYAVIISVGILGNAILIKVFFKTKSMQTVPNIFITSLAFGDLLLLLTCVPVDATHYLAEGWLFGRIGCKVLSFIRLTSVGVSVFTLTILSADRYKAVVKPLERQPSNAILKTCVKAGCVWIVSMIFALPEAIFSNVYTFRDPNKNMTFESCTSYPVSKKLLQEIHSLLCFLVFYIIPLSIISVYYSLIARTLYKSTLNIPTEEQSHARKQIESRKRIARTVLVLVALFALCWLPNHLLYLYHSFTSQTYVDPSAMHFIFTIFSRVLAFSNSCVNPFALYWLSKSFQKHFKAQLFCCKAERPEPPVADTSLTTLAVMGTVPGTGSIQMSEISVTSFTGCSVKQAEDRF
Chain of Lpa1 (Q92633 whole entry, species assumed): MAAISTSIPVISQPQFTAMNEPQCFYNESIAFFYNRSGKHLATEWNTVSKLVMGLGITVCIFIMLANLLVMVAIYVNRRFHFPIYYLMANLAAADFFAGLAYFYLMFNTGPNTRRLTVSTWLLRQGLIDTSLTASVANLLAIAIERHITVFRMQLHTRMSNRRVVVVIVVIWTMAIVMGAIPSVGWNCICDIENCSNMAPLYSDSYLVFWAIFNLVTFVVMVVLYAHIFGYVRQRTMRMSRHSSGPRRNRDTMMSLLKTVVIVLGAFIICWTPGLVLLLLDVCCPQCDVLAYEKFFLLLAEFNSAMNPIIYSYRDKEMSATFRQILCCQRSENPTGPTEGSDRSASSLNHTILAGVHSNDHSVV
T14 sequence (P42681 whole entry): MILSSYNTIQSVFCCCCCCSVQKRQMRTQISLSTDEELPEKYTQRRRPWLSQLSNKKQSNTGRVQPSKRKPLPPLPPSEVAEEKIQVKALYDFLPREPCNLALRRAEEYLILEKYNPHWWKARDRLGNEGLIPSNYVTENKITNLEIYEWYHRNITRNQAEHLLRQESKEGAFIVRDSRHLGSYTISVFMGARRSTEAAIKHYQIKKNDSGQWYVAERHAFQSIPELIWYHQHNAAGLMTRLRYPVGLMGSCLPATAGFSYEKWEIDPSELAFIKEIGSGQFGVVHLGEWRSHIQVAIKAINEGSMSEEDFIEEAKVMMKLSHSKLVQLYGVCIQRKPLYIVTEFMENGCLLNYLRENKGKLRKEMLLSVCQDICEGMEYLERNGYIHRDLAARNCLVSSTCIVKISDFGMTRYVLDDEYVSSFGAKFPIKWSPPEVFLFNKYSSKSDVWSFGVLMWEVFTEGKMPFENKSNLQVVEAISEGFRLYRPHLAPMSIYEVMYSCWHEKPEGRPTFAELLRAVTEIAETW
T12 sequence (Q9BYT3 whole entry): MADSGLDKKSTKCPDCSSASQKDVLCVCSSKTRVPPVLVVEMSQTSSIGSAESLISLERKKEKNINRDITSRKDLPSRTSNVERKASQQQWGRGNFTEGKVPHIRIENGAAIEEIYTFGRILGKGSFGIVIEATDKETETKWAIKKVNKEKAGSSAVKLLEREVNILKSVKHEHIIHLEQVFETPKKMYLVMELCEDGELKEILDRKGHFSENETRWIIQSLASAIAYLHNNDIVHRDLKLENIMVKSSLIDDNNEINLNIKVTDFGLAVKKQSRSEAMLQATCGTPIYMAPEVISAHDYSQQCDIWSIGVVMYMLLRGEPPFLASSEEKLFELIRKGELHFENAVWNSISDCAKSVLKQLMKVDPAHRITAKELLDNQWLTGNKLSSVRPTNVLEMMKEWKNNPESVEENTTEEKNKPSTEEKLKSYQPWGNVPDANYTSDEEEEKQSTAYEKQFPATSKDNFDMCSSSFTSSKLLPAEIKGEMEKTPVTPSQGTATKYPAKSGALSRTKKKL

With `CCc1ccc2c(c1)C1(NN=C(c3cccc4ccccc34)S1)C(=O)N2` (stereo not drawn) [OGM1, 5-ethyl-5′-naphthalen-1-ylspiro[1H-indole-3,2′-3H-1,3,4-thiadiazole]-2-one], the IC50 against Lpa1 was 8.7 µM. Moreover, the remaining binding at 10 µM at BIKE worked out at 88%; on CAMK1D, 68%; on DCAMKL2, 100%; on FLT4, 100%; at KIT(D816V), 100%; on MARK4, 95%. The remaining binding at 10 µM on MEK6 is 76%; at MKNK2 it was 91%; on MLCK, 100%; on PIK3CB it was 100%; on SRC it was 95%; at STK33, 91%. In addition, the remaining binding at 10 µM at TSSK1B was determined as 79%; on TXK, 99%. Besides, the Antagonism on BB3 (10 uM) is recorded as −0.7; on GABAB1b (10 uM), 0.1; at H3 (10 uM), −3.3; at NOP (10 uM), −1.9; on PTH2 (10 uM) it was −19.2. Besides, the Agonism at BB3 (12.5 uM) turned out to be 1.3; on GABAB1b (12.5 uM), 0.6; on H3 (12.5 uM), 0.5; at NOP (12.5 uM), 0.2; at PTH2 (12.5 uM), 1.1.
Regarding `CCc1ccc2c(c1)C1(NN=C(c3ccccc3)S1)C(=O)N2` (stereo not drawn) [OGM2], the “Chi-squared T(X), lipid peroxidation” value with U138 (2 μM) was found to be 273; with U138 (10 μM), 592. Also, the “CDI, lipid peroxidation” value in the assay with U138 (OGM2 and 2Gy ionizing radiation) is less than 0.006; with U87 it was less than 0.06; with Panc02 it was less than 0.232.
